Some results are limits rather than exact numbers.

The target of one assay is T1, PRMT5/MEP50 (Homo sapiens, UniProt O14744).
T1 construct: Flag-PRMT5; made in house; host or cells: Spodoptera frugiperda (SF9) insect cells, baculovirus (pDEST8)
Briefly: PRMT5 Biochemical Assay (PRMT5/MEP50 enzyme assay on peptide substrate, 3H-SAM Flashplate). As to conditions: PRMT5/MEP50 4 nM, 3H-SAM 75 nM, peptide 40 nM, 30 min preincubation at 25 degrees Celsius. From the text: S-adenosylmethionine (SAM), S-adenosylhomocysteine (SAH), bicine, KCl, Tween20, dimethylsulfoxide (DMSO), bovine skin gelatin (BSG), and Tris(2-carboxyethyl)phosphine hydrochloride solution (TCEP) were purchased from Sigma-Aldrich at the highest level of purity possible. ^3H-SAM was purchase from American Radiolabeled Chemicals with a specific activity of 80 Ci/mmol. 384-well streptavidin Flashplates were purchased from PerkinElmer.
Peptide representative of human histone H4 residues 1-15 was synthesized with a C-terminal linker-affinity tag motif and a C-terminal amide cap by 21st Century Biochemicals. The peptide was high high-performance liquid chromatography (HPLC) purified to greater than 95% purity and confirmed by liquid chromatography mass spectrometry (LC-MS). The sequence was Ac-[…][K-Biot]-amide (SEQ ID NO.:3).
Full-length human PRMT5 (NM_006109.3) transcript variant 1 clone was amplified from a fetal brain cDNA library, incorporating flanking 5′ sequence encoding a FLAG tag ([…]) (SEQ ID NO.:4) fused directly to Ala 2 of PRMT5. Full-length human MEP50 (NM_024102) clone was amplified from a human testis cDNA library incorporating a 5′ sequence encoding a 6-histidine tag (MHHHHHH) (SEQ ID NO.:5) fused directly to Arg 2 of MEP50. The amplified genes were sublconed into pENTR/D/TEV (Life Technologies) and subsequently transferred by Gateway™ attL×attR recombination to pDEST8 baculvirus expression vector (Life Technologies).
Recombinant baculovirus and Baculovirus-Infected Insect Cells (BIIC) were generated according to Bac-to-Bac kit instructions (Life Technologies) and Wasilko, 2006, respectively. Protein over-expression was accomplished by infecting exponentially growing Spodoptera frugiperda (SF9) cell culture at 1.2×10^6 cell/ml with a 5000 fold dilution of BIIC stock. Infections were carried out at 27° C. for 72 hours, harvested by centrifugation, and stored at −80° C. for purification.
Flag-PRMT5/6His-MeP50 was eluted with 300 mM Imidazole in the same buffer. The purity of recovered protein was 87%. Reference: Wasilko, D. J. and S. E. Lee: “TIPS: titerless infected-cells preservation and scale-up” Bioprocess J., 5 (2006), pp. 29-32.
General Procedure for PRMT5/MEP50 Enzyme Assays on Peptide Substrates.
The assays were all performed in a buffer consisting of 20 mM Bicine (pH=7.6), 1 mM TCEP, 0.005% BSG, and 0.002% Tween20, prepared on the day of use. Compounds in 100% DMSO (1 ul) were spotted into a polypropylene 384-well V-bottom plates (Greiner) using a Platemate Plus outfitted with a 384-channel head (Thermo Scientific). DMSO (1 ul) was added to Columns 11, 12, 23, 24, rows A-H for the maximum signal control and 1 ul of SAH, a known product and inhibitor of PRMT5/MEP50, was added to columns 11, 12, 23, 24, rows I-P for the minimum signal control. A cocktail (40 ul) containing the PRMT5/MEP50 enzyme and the peptide was added by Multidrop Combi (Thermo-Fisher). The compounds were allowed to incubate with PRMT5/MEP50 for 30 min at 25 degrees Celsius, then a cocktail (10 ul) containing ^3H-SAM was added to initiate the reaction (final volume=51 ul). The final concentrations of the components were as follows: PRMT5/MEP50 was 4 nM, ^3H-SAM was 75 nM, peptide was 40 nM, SAH in the minimum signal control wells was 100 uM, and the DMSO concentration was 1%. The assays were stopped by the addition of non-radioactive SAM (10 ul) to a final concentration of 600 uM, which dilutes the ^3H-SAM to a level where its incorporation into the peptide substrate is no longer detectable. 50 ul of the reaction in the 384-well polypropylene plate was then transferred to a 384-well Flashplate and the biotinylated peptides were allowed to bind to the streptavidin surface for at least 1 hour before being washed three times with 0.1% Tween20 in a Biotek ELx405 plate washer. […]

A further assay concerns Z-138 cell line. The experiment in a line: Z-138 Proliferation Assay (Cell Titer Glo). As to conditions: Homo sapiens, 120 h; Z-138 cells, 5 days incubation, ATP (Cell Titer Glo). It counts as cell-based. The source says: Z-138 Proliferation Assay
Z-138 suspension cells were purchased from ATCC (American Type Culture Collection, Manassas, Va.). RPMI/Glutamax medium, penicillin-streptomycin, heat inactivated fetal bovine serum were purchased from Life Technologies, Grand Island, N.Y., USA. V-bottom polypropylene 384-well plates were purchased from Greiner Bio-One, Monroe, N.C., USA. Cell culture 384-well white opaque plates were purchased from Perkin Elmer, Waltham, Mass., USA. Cell-Titer Glo® was purchased from Promega Corporation, Madison, Wis., USA. SpectraMax M5 plate reader was purchased from Molecular Devices LLC, Sunnyvale, Calif., USA.
Z-138 suspension cells were maintained in growth medium (RPMI 1640 supplemented with 10% v/v heat inactivated fetal bovine serum and cultured at 37° C. under 5% CO2. Under assay conditions, cells were incubated in assay medium (RPMI 1640 supplemented with 10% v/v heat inactivated fetal bovine serum and 100 units/mL penicillin-streptomycin) at 37° C. under 5% CO2.
For the assessment of the effect of compounds on the proliferation of the Z-138 cell line, exponentially growing cells were plated in 384-well white opaque plates at a density of 10,000 cells/ml in a final volume of 50 μl of assay medium. A compound source plate was prepared by performing triplicate nine-point 3-fold serial dilutions in DMSO, beginning at 10 mM (final top concentration of compound in the assay was 20 μM and the DMSO was 0.2%). A 100 nL aliquot from the compound stock plate was added to its respective well in the cell plate. […] After addition of compounds, assay plates were incubated for 5 days at 37° C., 5% CO2, relative humidity >90%.
Cell viability was measured by quantitation of ATP present in the cell cultures, adding 35 μl of Cell Titer Glo® reagent to the cell plates. Luminescence was read in the SpectraMax M5 microplate reader. The concentration of compound inhibiting cell viability by 50% was determined using a 4-parametric fit of the normalized dose response curves.

T1 sequence (O14744 with tags, fused parts or gaps): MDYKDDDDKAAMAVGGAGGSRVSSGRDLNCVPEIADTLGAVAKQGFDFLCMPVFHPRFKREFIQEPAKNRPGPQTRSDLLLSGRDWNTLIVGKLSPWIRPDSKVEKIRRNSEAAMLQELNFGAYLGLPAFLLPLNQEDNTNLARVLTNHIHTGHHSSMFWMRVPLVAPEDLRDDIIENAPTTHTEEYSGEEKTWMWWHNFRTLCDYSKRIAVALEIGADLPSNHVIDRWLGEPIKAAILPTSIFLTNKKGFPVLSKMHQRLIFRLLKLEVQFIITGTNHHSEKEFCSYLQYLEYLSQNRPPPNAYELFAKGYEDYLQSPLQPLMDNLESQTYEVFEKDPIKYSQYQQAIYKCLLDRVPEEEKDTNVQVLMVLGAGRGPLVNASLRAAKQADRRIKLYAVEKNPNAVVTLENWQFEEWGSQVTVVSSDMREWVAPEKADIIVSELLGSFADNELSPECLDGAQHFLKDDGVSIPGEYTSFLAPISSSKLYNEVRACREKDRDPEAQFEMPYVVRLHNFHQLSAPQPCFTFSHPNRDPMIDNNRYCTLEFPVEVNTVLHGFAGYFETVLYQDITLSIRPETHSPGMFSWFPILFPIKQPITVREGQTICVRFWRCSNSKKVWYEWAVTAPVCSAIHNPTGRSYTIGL
T1 sequence (Q9BQA1 with tags, fused parts or gaps partner limits assumed): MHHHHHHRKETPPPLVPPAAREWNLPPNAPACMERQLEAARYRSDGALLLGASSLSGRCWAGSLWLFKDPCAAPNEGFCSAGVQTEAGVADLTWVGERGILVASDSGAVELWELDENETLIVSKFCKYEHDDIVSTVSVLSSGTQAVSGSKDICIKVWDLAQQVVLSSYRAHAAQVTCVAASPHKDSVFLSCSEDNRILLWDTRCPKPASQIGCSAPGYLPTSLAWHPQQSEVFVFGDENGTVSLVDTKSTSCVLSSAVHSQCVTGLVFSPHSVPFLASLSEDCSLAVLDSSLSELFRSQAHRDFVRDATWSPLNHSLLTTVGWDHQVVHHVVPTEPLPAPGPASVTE

One may read the IC50 as the concentration at which inhibition is half-maximal. The EC50 is the concentration giving half of the maximal effect. Low readings indicate greater potency, high ones weaker potency. Consider `CC(=O)N1CCC(Nc2cc(C(=O)NC[C@H](O)CN3CCc4scnc4C3)ccn2)CC1` [Compound 1-30], for which the IC50 at PRMT5/MEP50 was in the range of 1 to 10 µM. Besides, in the assay with Z-138 cell line, the EC50 was over 5 µM.

Consider `O=C(NC[C@H](O)CN1CCc2cnccc2C1)c1cc(NC2COC2)ncn1` [Compound 2-15], for which, at PRMT5/MEP50, the IC50 lay within 1 to 10 µM. In the assay on Z-138 cell line, this compound displayed an EC50 of over 5 µM.

`CC(=O)N1CCC(Nc2cc(C(=O)NC[C@H](O)CN3CCc4scc(C)c4C3)ncn2)CC1` [Compound 1-13, (S)-6-((1-acetylpiperidin-4-yl)amino)-N-(2-hydroxy-3-(3-methyl-6,7-dihydrothieno[3,2-c]pyridin-5(4H)-yl)propyl)pyrimidine-4-carboxamide]: on PRMT5/MEP50, the IC50 was under 0.1 µM. The EC50 in the assay on Z-138 cell line is 0.101 to 1 µM.

For the compound `CC(=O)N1CC(Nc2cc(C(=O)NC[C@H](O)CN3CCc4scc(C)c4C3)ncn2)C1` [Compound 1-12, (S)-6-((1-acetylazetidin-3-yl)amino)-N-(2-hydroxy-3-(3-methyl-6,7-dihydrothieno[3,2-c]pyridin-5(4H)-yl)propyl)pyrimidine-4-carboxamide], the IC50 on PRMT5/MEP50 is under 0.1 µM. Besides, the EC50 with Z-138 cell line was 0.101 to 1 µM.

As to `CC(=O)N1CCC(Nc2cc(C(=O)NC[C@H](O)CN3CCc4cccnc4C3)ccn2)CC1` [Compound 2-21, (S)-2-((1-acetylpiperidin-4-yl)amino)-N-(3-(5,6-dihydro-1,7-naphthyridin-7(8H)-yl)-2-hydroxypropyl)isonicotinamide], the concentration for half-maximal inhibition (IC50) on PRMT5/MEP50 was 0.101 to 1 µM. In the assay with Z-138 cell line, the EC50 is over 5 µM.

Consider `CC(=O)N1CCC(Nc2cc(C(=O)NC[C@H](O)CN3CCCc4c3cnn4C)ncn2)CC1` [Compound 3-58], for which, at PRMT5/MEP50, the IC50 was over 10 µM. In the assay on Z-138 cell line, this compound showed an EC50 of over 5 µM.

As to `CC(=O)N1CC(Nc2cc(C(=O)NC[C@H](O)CN3CCc4sc(C)nc4C3)ncn2)C1` [Compound 1-27], the IC50 on PRMT5/MEP50 is 1 to 10 µM. This compound also had a half-maximal effective concentration (EC50) in the assay with Z-138 cell line of over 5 µM.

Turning to `CC(=O)N1CCC(Nc2cc(C(=O)NC[C@H](O)CN3CCc4c(ncn4C)C3)ncn2)CC1` [Compound 3-35, (S)-6-((1-acetylpiperidin-4-yl)amino)-N-(2-hydroxy-3-(1-methyl-6,7-dihydro-1H-imidazo[4,5-c]pyridin-5(4H)-yl)propyl)pyrimidine-4-carboxamide], on PRMT5/MEP50, the half-inhibitory concentration (IC50) was over 10 µM. The compound also had an EC50 in the assay with Z-138 cell line of over 5 µM.

For `Cc1nc2c(s1)CN(C[C@@H](O)CNC(=O)c1cc(NC3COC3)ncn1)CC2` [Compound 1-8, (S)—N-(2-hydroxy-3-(2-methyl-6,7-dihydrothiazolo[5,4-c]pyridin-5(4H)-yl)propyl)-6-(oxetan-3-ylamino)pyrimidine-4-carboxamide], the half-inhibitory concentration (IC50) at PRMT5/MEP50 was over 10 µM. In the assay with Z-138 cell line, this compound came in with an EC50 of over 5 µM.

As for `CC(=O)N1CCC(Nc2cc(C(=O)NC[C@H](O)CN3CCc4cn[nH]c4C3)ncn2)CC1` [Compound 3-51], the 50% inhibitory concentration (IC50) at PRMT5/MEP50 was over 10 µM. In addition, the EC50 with Z-138 cell line is over 5 µM.

Consider `CC(=O)N1CC(Nc2cc(C(=O)NC[C@H](O)CN3CCc4[nH]cnc4C3)ncn2)C1` [Compound 3-33, (S)-6-((1-acetylazetidin-3-yl)amino)-N-(3-(6,7-dihydro-1H-imidazo[4,5-c]pyridin-5(4H)-yl)-2-hydroxypropyl)pyrimidine-4-carboxamide], for which the IC50 at PRMT5/MEP50 is over 10 µM. In the assay on Z-138 cell line, this compound registered a concentration for a half-maximal effect (EC50) of over 5 µM.

With `CC(=O)N1CCC(Nc2cc(C(=O)NC[C@H](O)CN3CCc4ccncc4C3)ccn2)CC1` [Compound 2-19, (S)-2-((1-acetylpiperidin-4-yl)amino)-N-(3-(3,4-dihydro-2,7-naphthyridin-2(1H)-yl)-2-hydroxypropyl)isonicotinamide], the IC50 on PRMT5/MEP50 lay in the range of 0.101 to 1 µM. For the same compound, in the assay with Z-138 cell line, the EC50 was over 5 µM.

In the case of `CC(=O)N1CCC(Nc2cc(C(=O)NC[C@H](O)CN3CCc4ccncc4C3)ncn2)CC1` [Compound 2-23, (S)-6-((1-acetylpiperidin-4-yl)amino)-N-(3-(3,4-dihydro-2,7-naphthyridin-2(1H)-yl)-2-hydroxypropyl)pyrimidine-4-carboxamide], the IC50 at PRMT5/MEP50 was 1 to 10 µM. The EC50 in the assay on Z-138 cell line was over 5 µM.

`CC(=O)N1CCC(Nc2cc(C(=O)NC[C@H](O)CN3CCc4sc(N)nc4C3)ncn2)CC1` [Compound 1-37]: the IC50 on PRMT5/MEP50 was 1 to 10 µM. This compound also displayed an EC50 with Z-138 cell line of over 5 µM.

As for `CC(=O)N1CCC(Nc2cc(C(=O)NC[C@H](O)CN3CCc4cnccc4C3)ncn2)CC1` [Compound 2-17, (S)-6-((1-acetylpiperidin-4-yl)amino)-N-(3-(3,4-dihydro-2,6-naphthyridin-2(1H)-yl)-2-hydroxypropyl)pyrimidine-4-carboxamide], the half-maximal inhibitory concentration (IC50) on PRMT5/MEP50 is 0.101 to 1 µM. In the assay on Z-138 cell line, this compound had an EC50 of over 5 µM.

For the compound `Cc1nc2c([nH]1)CCN(C[C@@H](O)CNC(=O)c1cc(NC3COC3)ncn1)C2` [Compound 3-41], the IC50 at PRMT5/MEP50 was over 10 µM. For the same compound, in the assay with Z-138 cell line, the concentration giving a half-maximal response (EC50) was over 5 µM.

Turning to `O=C(COc1cccc2cccnc12)NCC(O)CN1CCc2nc[nH]c2C1` (stereo not shown) [Compound 3-10, N-(2-hydroxy-3-{3H,4H,5H,6H,7H-imidazo[4,5-c]pyridin-5-yl}propyl)-2-(quinolin-8-yloxy)acetamide], the IC50 on PRMT5/MEP50 was over 10 µM. The same compound showed an EC50 in the assay on Z-138 cell line of over 5 µM.

As to `CC(=O)N1CCC(Nc2cc(C(=O)NC[C@H](O)CN3CCc4scc(C)c4C3)ccn2)CC1` [Compound 1-14, (S)-2-((1-acetylpiperidin-4-yl)amino)-N-(2-hydroxy-3-(3-methyl-6,7-dihydrothieno[3,2-c]pyridin-5(4H)-yl)propyl)isonicotinamide], on PRMT5/MEP50, the IC50 is under 0.1 µM. In the assay with Z-138 cell line, this compound registered a half-maximal effective concentration (EC50) of 0.101 to 1 µM.

On to `CC(=O)N1CCC(Nc2cc(C(=O)NC[C@H](O)CN3CCc4nc(N)sc4C3)ccn2)CC1` [Compound 1-35], for which the IC50 on PRMT5/MEP50 fell in the range of 0.101 to 1 µM. Also, the EC50 with Z-138 cell line is over 5 µM.

As for `CC(=O)N1CCC(Nc2cc(C(=O)NC[C@H](O)CN3CCc4c(ncn4C)C3)ccn2)CC1` [Compound 3-22, (S)-2-((1-acetylpiperidin-4-yl)amino)-N-(2-hydroxy-3-(1-methyl-6,7-dihydro-1H-imidazo[4,5-c]pyridin-5(4H)-yl)propyl)isonicotinamide], the half-maximal inhibitory concentration (IC50) on PRMT5/MEP50 is over 10 µM. In the assay with Z-138 cell line, this compound had an EC50 of over 5 µM.

Source of the values: patent US20170210751A1, “PRMT5 INHIBITORS AND USES THEREOF” (Epizyme, Inc., priority 2014, published 2017).
